Test results from ChEMBL document CHEMBL5463725, “Data for DCP probe BAY-277” (2023).

Assays:
[1] = molecular target: T1, Muscarinic acetylcholine receptor M1 (Homo sapiens, UniProt P11229); assay: GPCRScan assay: inhibition of M1; design: radioligand conc. used [nm] 0.3 – 1.2, parental cells stable CHO
T1 sequence (P11229 whole entry): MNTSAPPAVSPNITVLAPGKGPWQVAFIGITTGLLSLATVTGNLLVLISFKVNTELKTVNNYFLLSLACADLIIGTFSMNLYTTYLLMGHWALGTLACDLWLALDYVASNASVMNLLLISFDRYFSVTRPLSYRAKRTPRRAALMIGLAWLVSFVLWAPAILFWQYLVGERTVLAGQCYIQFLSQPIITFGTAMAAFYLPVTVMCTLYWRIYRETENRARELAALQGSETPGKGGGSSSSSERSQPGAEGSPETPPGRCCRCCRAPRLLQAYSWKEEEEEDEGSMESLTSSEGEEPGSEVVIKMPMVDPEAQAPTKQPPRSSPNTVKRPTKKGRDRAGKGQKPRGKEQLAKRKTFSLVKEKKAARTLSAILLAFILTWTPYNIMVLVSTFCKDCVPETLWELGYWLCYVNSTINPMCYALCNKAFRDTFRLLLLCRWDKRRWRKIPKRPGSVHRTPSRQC

[2] = molecular target: Sigma intracellular receptor 2 (Homo sapiens, UniProt Q5BJF2); assay: GPCRScan assay: inhibition of Sigma 2; design: radioligand conc. used [nm] 5.0, parental cells HEKT
[3] = molecular target: Leukotriene C4 synthase (Cavia porcellus) (UniProt A6XA80); assay: Inhibition of Leukotriene LTC4 Synthase at 10.0 µM in the Eurofins Panlabs Safety Screen; settings: Compound concentration 10.0 uM
[4] = molecular target: Adenosine receptor A2a (Homo sapiens) (UniProt P29274); assay: Inhibition of Adenosine A2A at 10.0 µM in the Eurofins Panlabs Safety Screen; settings: Compound concentration 10.0 uM
[5] = molecular target: T2, Alpha-2A adrenergic receptor (Homo sapiens) (UniProt P08913); assay: Inhibition of Adrenergic alpha2A at 10.0 µM in the Eurofins Panlabs Safety Screen; settings: Compound concentration 10.0 uM
T2 sequence (whole entry): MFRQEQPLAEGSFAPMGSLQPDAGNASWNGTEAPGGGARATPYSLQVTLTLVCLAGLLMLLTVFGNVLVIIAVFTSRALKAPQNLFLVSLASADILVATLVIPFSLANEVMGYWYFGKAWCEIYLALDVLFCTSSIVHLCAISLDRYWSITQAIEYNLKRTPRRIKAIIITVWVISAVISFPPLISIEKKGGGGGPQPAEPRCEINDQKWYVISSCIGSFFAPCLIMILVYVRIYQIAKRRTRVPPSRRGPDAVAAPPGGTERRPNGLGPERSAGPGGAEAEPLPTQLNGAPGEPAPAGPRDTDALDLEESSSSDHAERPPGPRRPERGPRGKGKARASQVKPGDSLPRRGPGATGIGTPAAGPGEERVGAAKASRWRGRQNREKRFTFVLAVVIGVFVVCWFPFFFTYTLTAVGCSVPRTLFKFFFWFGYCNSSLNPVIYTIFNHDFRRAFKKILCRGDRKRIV

[6] = molecular target: T3, Alpha-2B adrenergic receptor (Homo sapiens) (UniProt P18089); assay: Inhibition of Adrenergic alpha2B at 10.0 µM in the Eurofins Panlabs Safety Screen; settings: Compound concentration 10.0 uM
T3 sequence (whole entry): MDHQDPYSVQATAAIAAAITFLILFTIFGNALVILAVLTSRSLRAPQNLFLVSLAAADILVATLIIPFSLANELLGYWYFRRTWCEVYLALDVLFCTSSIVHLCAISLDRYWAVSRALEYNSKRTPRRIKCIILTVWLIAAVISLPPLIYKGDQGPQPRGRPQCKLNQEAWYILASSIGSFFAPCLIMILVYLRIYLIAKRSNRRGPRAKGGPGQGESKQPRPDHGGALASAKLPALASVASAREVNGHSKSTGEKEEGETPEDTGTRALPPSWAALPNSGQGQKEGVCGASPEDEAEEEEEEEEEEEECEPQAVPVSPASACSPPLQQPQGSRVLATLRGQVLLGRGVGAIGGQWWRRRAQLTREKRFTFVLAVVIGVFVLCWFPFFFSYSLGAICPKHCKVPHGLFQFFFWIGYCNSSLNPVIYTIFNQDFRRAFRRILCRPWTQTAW

[7] = molecular target: Type-2 angiotensin II receptor (Homo sapiens) (UniProt P50052); assay: Inhibition of Angiotensin AT2 at 10.0 µM in the Eurofins Panlabs Safety Screen; settings: Compound concentration 10.0 uM
[8] = molecular target: T4, Muscarinic acetylcholine receptor M2 (Homo sapiens) (UniProt P08172); assay: Inhibition of Muscarinic M2 at 10.0 µM in the Eurofins Panlabs Safety Screen; settings: Compound concentration 10.0 uM
T4 sequence (whole entry): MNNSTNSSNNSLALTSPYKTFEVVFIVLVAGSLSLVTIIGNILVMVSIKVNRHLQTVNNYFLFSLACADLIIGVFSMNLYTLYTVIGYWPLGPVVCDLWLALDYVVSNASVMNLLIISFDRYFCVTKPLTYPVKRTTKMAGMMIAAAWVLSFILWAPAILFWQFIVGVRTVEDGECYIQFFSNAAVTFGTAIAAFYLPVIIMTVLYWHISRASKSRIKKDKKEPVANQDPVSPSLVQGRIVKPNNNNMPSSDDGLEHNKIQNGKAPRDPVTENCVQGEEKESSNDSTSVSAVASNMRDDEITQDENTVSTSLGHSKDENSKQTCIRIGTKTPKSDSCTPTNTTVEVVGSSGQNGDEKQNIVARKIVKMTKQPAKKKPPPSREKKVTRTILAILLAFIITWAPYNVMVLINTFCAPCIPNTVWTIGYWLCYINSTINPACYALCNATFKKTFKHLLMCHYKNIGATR

[9] = molecular target: Delta-type opioid receptor (Homo sapiens) (UniProt P41143); assay: Inhibition of Opiate delta1 (OP1, DOP) at 10.0 µM in the Eurofins Panlabs Safety Screen; settings: Compound concentration 10.0 uM
[10] = molecular target: Sodium-dependent dopamine transporter (Homo sapiens, UniProt Q01959); assay: Inhibition of Transporter, Dopamine (DAT) at 10.0 µM in the Eurofins Panlabs Safety Screen; settings: Compound concentration 10.0 uM
[11] = molecular target: 5-hydroxytryptamine receptor 2B (Homo sapiens) (UniProt P41595); settings: Compound concentration 10.0 uM
D(3) dopamine receptor = D(3) dopamine receptor (Homo sapiens, UniProt P35462); settings: Compound concentration 10.0 uM
[12] = molecular target: D(1B) dopamine receptor (Homo sapiens) (UniProt P21918); settings: Compound concentration 10.0 uM
[13] = molecular target: Sodium-dependent serotonin transporter (Homo sapiens) (UniProt P31645); settings: Compound concentration 10.0 uM
[14] = molecular target: T2, Alpha-2A adrenergic receptor (Homo sapiens); settings: Compound concentration 10.0 uM
[15] = molecular target: Beta-3 adrenergic receptor (Homo sapiens) (UniProt P13945); settings: Compound concentration 10.0 uM
Beta-3 adrenergic receptor (Homo sapiens), sequence (P13945 whole entry, looked up): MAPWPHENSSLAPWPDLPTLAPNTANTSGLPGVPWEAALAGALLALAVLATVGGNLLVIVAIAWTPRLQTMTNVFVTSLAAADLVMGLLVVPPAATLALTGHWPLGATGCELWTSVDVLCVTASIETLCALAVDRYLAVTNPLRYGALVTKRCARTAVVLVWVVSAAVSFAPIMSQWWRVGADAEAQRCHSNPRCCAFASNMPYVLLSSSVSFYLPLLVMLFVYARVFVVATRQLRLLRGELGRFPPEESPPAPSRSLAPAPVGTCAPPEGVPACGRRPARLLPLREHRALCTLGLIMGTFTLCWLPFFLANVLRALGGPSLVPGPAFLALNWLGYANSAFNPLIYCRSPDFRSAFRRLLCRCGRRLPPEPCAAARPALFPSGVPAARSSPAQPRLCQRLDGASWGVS

D(3) dopamine receptor, sequence (P35462 whole entry): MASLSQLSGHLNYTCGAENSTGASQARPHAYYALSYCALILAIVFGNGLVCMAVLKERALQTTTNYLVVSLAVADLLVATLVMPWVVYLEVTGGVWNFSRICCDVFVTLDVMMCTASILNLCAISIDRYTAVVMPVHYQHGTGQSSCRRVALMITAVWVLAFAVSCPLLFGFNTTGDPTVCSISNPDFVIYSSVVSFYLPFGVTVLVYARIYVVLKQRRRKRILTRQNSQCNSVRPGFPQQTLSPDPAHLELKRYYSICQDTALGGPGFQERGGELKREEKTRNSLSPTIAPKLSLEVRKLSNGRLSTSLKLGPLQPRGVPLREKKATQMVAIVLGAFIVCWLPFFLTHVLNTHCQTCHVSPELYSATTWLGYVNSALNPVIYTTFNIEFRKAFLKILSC
Sodium-dependent serotonin transporter (Homo sapiens), sequence (P31645 whole entry, looked up): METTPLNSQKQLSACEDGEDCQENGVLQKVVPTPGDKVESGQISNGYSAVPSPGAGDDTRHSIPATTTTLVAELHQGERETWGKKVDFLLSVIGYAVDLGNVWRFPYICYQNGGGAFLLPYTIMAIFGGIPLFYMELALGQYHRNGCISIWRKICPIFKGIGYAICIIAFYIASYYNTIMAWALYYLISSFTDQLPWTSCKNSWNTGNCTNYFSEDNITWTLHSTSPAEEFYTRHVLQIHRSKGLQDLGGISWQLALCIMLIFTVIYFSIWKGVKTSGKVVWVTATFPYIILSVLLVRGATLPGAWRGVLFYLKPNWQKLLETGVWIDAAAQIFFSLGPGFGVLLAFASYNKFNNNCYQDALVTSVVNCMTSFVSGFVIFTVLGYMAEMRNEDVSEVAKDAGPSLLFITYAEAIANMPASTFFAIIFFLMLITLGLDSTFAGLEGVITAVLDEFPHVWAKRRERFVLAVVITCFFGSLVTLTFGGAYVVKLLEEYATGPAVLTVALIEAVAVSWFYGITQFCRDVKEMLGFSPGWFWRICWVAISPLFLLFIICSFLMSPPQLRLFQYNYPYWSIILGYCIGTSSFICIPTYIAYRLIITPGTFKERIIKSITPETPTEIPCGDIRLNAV
Sigma intracellular receptor 2, sequence (Q5BJF2 whole entry): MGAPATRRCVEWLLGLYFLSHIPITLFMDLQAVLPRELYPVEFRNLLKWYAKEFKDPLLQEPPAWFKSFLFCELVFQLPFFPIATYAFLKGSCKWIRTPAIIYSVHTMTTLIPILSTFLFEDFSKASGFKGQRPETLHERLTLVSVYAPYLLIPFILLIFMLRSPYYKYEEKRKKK
5-hydroxytryptamine receptor 2B (Homo sapiens), sequence (P41595 whole entry): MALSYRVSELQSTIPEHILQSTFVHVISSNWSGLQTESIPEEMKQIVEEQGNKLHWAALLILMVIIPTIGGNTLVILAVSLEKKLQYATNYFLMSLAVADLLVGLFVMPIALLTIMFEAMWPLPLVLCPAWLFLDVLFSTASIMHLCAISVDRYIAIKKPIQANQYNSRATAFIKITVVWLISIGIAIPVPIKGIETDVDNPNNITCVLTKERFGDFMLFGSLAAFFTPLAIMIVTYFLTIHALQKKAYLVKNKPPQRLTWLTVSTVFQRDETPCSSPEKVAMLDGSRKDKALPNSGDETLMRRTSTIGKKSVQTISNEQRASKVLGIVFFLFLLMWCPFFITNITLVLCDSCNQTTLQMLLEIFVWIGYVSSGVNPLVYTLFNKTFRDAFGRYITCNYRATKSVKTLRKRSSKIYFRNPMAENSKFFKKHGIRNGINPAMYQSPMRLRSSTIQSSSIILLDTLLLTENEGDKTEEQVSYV
D(1B) dopamine receptor (Homo sapiens), sequence (P21918 whole entry): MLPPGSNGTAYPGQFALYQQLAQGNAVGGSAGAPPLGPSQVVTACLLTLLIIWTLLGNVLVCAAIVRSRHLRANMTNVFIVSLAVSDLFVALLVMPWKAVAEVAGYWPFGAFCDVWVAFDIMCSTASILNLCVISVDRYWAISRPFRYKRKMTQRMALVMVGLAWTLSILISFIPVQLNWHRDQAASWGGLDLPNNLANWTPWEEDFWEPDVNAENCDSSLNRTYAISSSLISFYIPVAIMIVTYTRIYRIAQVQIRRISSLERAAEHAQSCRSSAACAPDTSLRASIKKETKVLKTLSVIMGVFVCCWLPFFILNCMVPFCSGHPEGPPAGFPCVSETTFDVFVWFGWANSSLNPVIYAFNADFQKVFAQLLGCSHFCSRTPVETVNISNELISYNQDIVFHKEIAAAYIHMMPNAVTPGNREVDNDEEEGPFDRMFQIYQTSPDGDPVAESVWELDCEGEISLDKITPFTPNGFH
Delta-type opioid receptor (Homo sapiens), sequence (P41143 whole entry): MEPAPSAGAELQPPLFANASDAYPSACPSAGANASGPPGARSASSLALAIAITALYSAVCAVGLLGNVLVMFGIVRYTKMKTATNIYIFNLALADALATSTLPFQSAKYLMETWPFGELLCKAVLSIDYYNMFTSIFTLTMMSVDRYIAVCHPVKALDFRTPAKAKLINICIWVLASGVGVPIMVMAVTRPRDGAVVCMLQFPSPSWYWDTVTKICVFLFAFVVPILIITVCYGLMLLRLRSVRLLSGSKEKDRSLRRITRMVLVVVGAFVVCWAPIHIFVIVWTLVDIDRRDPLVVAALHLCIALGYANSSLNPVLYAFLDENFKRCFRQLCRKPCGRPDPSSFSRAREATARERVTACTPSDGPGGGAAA
Adenosine receptor A2a (Homo sapiens), sequence (P29274 whole entry): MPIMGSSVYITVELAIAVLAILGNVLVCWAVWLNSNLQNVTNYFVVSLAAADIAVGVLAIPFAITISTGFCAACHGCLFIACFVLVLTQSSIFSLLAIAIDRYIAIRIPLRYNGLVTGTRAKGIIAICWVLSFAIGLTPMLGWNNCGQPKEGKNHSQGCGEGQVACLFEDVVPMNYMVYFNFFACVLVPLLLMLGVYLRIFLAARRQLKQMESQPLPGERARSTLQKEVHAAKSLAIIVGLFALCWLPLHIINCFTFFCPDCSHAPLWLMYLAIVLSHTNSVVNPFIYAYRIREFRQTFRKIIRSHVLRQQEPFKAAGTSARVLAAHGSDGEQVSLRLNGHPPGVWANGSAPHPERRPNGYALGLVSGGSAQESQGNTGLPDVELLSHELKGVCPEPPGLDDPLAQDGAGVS
Leukotriene C4 synthase (Cavia porcellus), sequence (A6XA80 whole entry): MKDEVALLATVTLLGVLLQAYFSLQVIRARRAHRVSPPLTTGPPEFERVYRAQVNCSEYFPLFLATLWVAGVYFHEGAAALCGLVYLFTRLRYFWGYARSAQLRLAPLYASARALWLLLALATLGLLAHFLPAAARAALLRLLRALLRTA
Sodium-dependent dopamine transporter, sequence (Q01959 whole entry): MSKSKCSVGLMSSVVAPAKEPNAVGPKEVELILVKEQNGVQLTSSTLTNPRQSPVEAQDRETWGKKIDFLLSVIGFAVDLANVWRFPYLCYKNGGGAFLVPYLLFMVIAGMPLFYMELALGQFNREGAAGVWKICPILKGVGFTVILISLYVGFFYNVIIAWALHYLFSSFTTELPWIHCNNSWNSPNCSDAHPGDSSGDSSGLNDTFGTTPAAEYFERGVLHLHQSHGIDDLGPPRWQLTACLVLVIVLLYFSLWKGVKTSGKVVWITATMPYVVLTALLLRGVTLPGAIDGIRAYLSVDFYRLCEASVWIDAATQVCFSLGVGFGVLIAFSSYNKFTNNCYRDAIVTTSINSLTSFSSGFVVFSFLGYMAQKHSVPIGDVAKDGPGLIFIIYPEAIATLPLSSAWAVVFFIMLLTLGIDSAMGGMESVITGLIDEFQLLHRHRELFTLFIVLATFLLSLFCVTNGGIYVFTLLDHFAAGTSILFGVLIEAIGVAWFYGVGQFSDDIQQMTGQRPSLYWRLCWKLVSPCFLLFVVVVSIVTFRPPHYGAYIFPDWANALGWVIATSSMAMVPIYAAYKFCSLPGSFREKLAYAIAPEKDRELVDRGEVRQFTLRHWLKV
Type-2 angiotensin II receptor (Homo sapiens), sequence (P50052 whole entry): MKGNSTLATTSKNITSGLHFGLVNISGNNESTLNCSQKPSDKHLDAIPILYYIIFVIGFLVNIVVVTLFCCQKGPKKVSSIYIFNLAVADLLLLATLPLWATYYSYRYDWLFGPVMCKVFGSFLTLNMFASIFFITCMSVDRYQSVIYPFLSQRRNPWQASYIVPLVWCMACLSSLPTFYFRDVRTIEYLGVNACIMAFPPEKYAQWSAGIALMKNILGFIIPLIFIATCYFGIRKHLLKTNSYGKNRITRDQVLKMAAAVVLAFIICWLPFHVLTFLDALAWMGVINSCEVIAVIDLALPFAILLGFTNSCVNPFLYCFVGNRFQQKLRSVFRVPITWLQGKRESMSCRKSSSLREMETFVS

In the case of O=C1NCCCC1N1Cc2cc(C3CCN(C(=O)CCCCCN4CCC(c5ccc(Oc6nn7cnnc7c7c6CCCC7)cc5)CC4)CC3)ccc2C1=O (stereo unspecified), the Ki ([1]; read-out: Ki) is reported as 2190 nM, the Ki ([1]; read-out: pKi (converted)) is reported as 2190 nM and the Ki ([2]; read-out: Ki) is reported as 1140 nM. It also gave a Ki ([2]; read-out: pKi (converted)) of 977 nM, an inhibition [3] of 15% and an inhibition [4] of 6%. For the same compound, the inhibition [5] was 32%, the inhibition [6] was 8% and the inhibition [7] was 17%. It also gave an inhibition [8] of 47%, an inhibition [9] of 7% and an inhibition [10] of 39%. For the same compound, the inhibition [11] was -7.97%, the inhibition (D(3) dopamine receptor) was 68.3% and the inhibition [12] was 10.8%. For the same compound, the inhibition [13] was 9.58%, the inhibition [14] was 29.3% and the inhibition [15] was 7.19%.
O=C1CCC(N2Cc3cc(C4CCN(C(=O)CCCCCN5CCC(c6ccc(Oc7nn8cnnc8c8c7CCCC8)cc6)CC5)CC4)ccc3C2=O)C(=O)N1 (stereo unspecified) was tested, and the Ki ([1]; read-out: Ki) was 1670 nM, the Ki ([1]; read-out: pKi (converted)) was 1660 nM and the Ki ([2]; read-out: Ki) was 867 nM. It also gave a Ki ([2]; read-out: pKi (converted)) of 832 nM, an inhibition [3] of 2% and an inhibition [4] of 6%. For the same compound, the inhibition [5] was 28%, the inhibition [6] was 19% and the inhibition [7] was 13%. It also gave an inhibition [8] of 53%, an inhibition [9] of 0% and an inhibition [10] of 38%. It also gave an inhibition [11] of 19.9%, an inhibition (D(3) dopamine receptor) of 25.6% and an inhibition [12] of 1.6%. It also gave an inhibition [13] of 45.8%, an inhibition [14] of 33.1% and an inhibition [15] of 27.8%.
